{
  "source": "patent US9962420B2",
  "about": "“Compositions and methods for treating diabetes, fatty liver, cardiopathies, insulin resistance, carbohydrate and fat metabolism” (VALBIOTIS, priority 2014, dated 2018)",
  "key": {"db/db mice [1]": {"system": "db/db mice", "assay": "Fasting glycemia (Tests A)", "type": "in vivo", "conditions": "Colby method", "quoted_text": "(§3) The experiments were performed on db/db mice. db/db mice have a mutation of the leptin receptors inducing a cell signaling dysfunction of the latter. […] These mice are insulin resistant, hypertriglyceridemic and glucose-intolerant.\n(§4) The evaluations presented were performed just before the supplementation (t=0) and at the end of supplementation (t=8 weeks)."}, "db/db mice [2]": {"system": "db/db mice", "assay": "Oral test of carbohydrate tolerance, starch force-feeding (Tests A)", "type": "in vivo", "conditions": "Colby method", "experimental": "The experiments were performed on db/db mice. db/db mice have a mutation of the leptin receptors inducing a cell signaling dysfunction of the latter. The leptin receptors are highly expressed in the hypothalamus. Mice having a mutation of these receptors cannot efficiently regulate their energy stores. […] These mice are insulin resistant, hypertriglyceridemic and glucose-intolerant. They constitute a pertinent and predictive model especially for studying insulin sensitivity, triglyceridemia, type 2 diabetes and one of its complications, non-alcoholic steatohepatitis (NASH) (Aileen J F King Br J Pharmacol 2012; 166(3):877-894; Sanches S C et al. Biomed Res Int 2015).\nThe experimental time was nine weeks with a “run-in” of one week followed by eight weeks of supplementation with the plant extracts and a composition X. The male mice were ten weeks old at the start of the treatment.\nNine compositions X were tested. […]\nThe experimental evaluations focused especially on: • Measurement of the body mass; • Measurement of the fasting glycemia; • The change in glycemia during an oral test of carbohydrate tolerance. After force-feeding with starch (3 g/kg) in the fasted state, the change in glycemia in response to starch was measured in the tail by biopsy just before the force-feeding (t0) and then after 30, 60, 90 and 120 minutes. The area under the curve (AUC) was calculated. […]"}, "db/db mice [3]": {"system": "db/db mice", "assay": "Body mass (Tests A)", "type": "in vivo", "conditions": "after eight weeks in feed", "quoted_text": "as §3, §4"}, "db/db mice [4]": {"system": "db/db mice", "conditions": "highest dose, same model of db/db mice and similar experimental design; cited from earlier work"}, "db/db mice [5]": {"system": "db/db mice", "assay": "Body mass, fat mass and lean mass by MRI (Tests B)", "type": "in vivo", "conditions": "six weeks in feed, mean ± SEM", "source_text": "(§1) Using this predictive model of diabetic mice and incorporating composition C10 directly into the rodents' feed (1% Chrysanthellum indicum, 1% Cynara scolymus, 0.1% Vaccinium myrtillus, 0.001% Piper nigrum and 0.6% Olea europaea of the feed), this makes it possible to ensure its “multi-target” efficacy and its large-scale use, since intravenous or intraperitoneal injections are limited to a small number of people, given their mode of administration.\n(§2) The experimental time was seven weeks with a “run-in” of one week followed by six weeks of supplementation with composition C10. The male mice were six weeks old at the start of the treatment. The evaluations were made just before the supplementation (t=0), weekly for certain parameters, and at the end of supplementation (t=6 weeks). […]"}, "db/db mice [6]": {"system": "db/db mice", "assay": "Fasting glycemia (Tests B)", "type": "in vivo", "conditions": "six weeks in feed, mean ± SEM", "source_text": "as §1, §2"}, "db/db mice [7]": {"system": "db/db mice", "assay": "Glycated hemoglobin HbA1c (Tests B)", "type": "in vivo", "conditions": "six weeks in feed, mean ± SEM", "source_text": "as §1, §2"}, "db/db mice [8]": {"system": "db/db mice", "assay": "Insulin sensitivity test (Tests B)", "type": "in vivo", "conditions": "six weeks in feed, mean ± SEM", "experimental": "For compositions C7 to C9, an insulin sensitivity test was also performed. […] The change in glycemia in response to the insulin injection was measured in the tail by biopsy just before the injection (t0) and then after 30, 60, 90 and 120 minutes. The area under the curve (AUC) was calculated. A decrease in the AUC reflects a better response to the insulin injection and thus an improvement in the insulin sensitivity. Conversely, an increase in the AUC reflects poorer insulin sensitivity and thus insulin resistance.\nas §1, §2"}, "db/db mice [9]": {"system": "db/db mice", "assay": "Hepatic and serum triglycerides, serum HDL cholesterol (Tests B)", "type": "in vivo", "conditions": "six weeks in feed, mean ± SEM", "source_text": "The experimental time was seven weeks with a “run-in” of one week followed by six weeks of supplementation with composition C10. The male mice were six weeks old at the start of the treatment. The evaluations were made just before the supplementation (t=0), weekly for certain parameters, and at the end of supplementation (t=6 weeks).\nThe experimental evaluations related especially to: • Measurement of the feed intake (t1, t2, t3, t4 and t5 weeks); • Measurement of the body mass (t0, t1, t2, t3, t4, t5, t6 weeks); • Measurement of the fat mass and lean mass by MRI (magnetic resonance imaging; t0 and t6 weeks); • Measurement of the fasting glycemia (t0, t1, t2, t3, t4, t5, t6 weeks); • Measurement of the glycated hemoglobin (HbA1c; t6 weeks); • The insulin sensitivity (test identical to that performed in Tests A; t0 and t6 weeks); • The carbohydrate tolerance (test identical to that performed in Tests A; t0 and t6 weeks); • Measurement of the hepatic and serum triglycerides (t6 weeks); • Measurement of the serum HDL cholesterol (t6 weeks)."}, "[10]": {"conditions": "p<0.01; cited from earlier work"}, "[11]": {"biological_target": "T1, HMG-CoA reductase (Catalytic domain of the human enzyme, recombinant GST fusion protein expressed in E. Coli) (Homo sapiens, UniProt P04035)", "T1 construct": "(Catalytic domain of); GST; purchased Sigma", "T1 sequence (P04035 340-888 limits assumed)": "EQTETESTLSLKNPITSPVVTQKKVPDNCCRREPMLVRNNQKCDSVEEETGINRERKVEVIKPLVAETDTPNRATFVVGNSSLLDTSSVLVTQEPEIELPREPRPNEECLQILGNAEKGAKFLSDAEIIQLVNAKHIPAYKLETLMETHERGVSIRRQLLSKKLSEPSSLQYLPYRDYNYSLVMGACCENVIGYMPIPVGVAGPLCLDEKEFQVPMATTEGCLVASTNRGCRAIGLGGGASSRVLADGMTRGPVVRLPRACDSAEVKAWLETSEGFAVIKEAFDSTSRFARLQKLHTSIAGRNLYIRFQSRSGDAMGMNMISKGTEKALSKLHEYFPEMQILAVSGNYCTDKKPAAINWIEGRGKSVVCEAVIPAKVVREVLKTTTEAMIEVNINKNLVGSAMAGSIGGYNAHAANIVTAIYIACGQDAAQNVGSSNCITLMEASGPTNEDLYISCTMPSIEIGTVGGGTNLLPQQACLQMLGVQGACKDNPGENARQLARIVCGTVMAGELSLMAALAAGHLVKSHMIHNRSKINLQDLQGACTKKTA", "assay": "Test of inhibition of HMG-CoA reductase", "type": "biochemical", "conditions": "concentration of sample set at 60 μg/mL", "quoted_text": "The molecules were diluted either in 90/10 (v/v) ultra-pure water/DMSO or in 50/50 (v/v) ultra-pure water/ethanol.\nThe reaction mechanism is as follows: HMG-CoA+2NADPH+2H^+ ? mevalonate+2NADP^++CoA-SH\nDisappearance of the substrate NADPH (absorbing at 340 nm) is thus monitored over time.\nIn a first stage, the solutions need to be prepared from the Sigma® kit: • the 5× buffer supplied must be diluted to a concentration of 1× in ultra-pure water; • the NADPH is dissolved by adding 1× buffer, and then distributed in 100 μL tubes; • the starting enzyme solution is distributed in 25 μL aliquots.\nThe manipulations were performed directly in 96-well microplates (NUNC96 or [sequence]96). […]\nAfter preparing the plate, the kinetic monitoring was performed in a microplate reader (BMG Labtech) over 16 minutes, 25 seconds, with values taken every 25 seconds at λ=340 nm, i.e. a total of 40 cycles. From this, the percentages of inhibition could be calculated.\nIn general, irrespective of the test, for a given concentration of an inhibitor, a curve of equation: absorbance=f(time) (in minutes) was prepared. […]\nDepending on the types of tests, the percentages of inhibition of the various enzymes were calculated via various methods: • for the tests for inhibition of HMG-CoA reductase and of α-glucosidases, the calculation formula is identical: […]"}},
  "note": "Read-outs that look alike come from different tables or passages of the source.",
  "data": [
    {"smiles": "O=C(/C=C/C=C/c1ccc2c(c1)OCO2)N1CCCCC1", "note": "[Composition C5, piperine]", "values": [
      {"measurement": "Observed degree of efficacy (in % of the control group), fasting glycemia after eight weeks of treatment", "setting": "db/db mice [1]", "value": "−13.3", "unit": "%"},
      {"measurement": "Observed degree of efficacy (in % of the control group), oral test of carbohydrate tolerance, AUC (week 8 − week 0)", "setting": "db/db mice [2]", "value": "−82.3", "unit": "%"},
      {"measurement": "Body mass (mean ± SEM)", "setting": "db/db mice [3]", "value": "32.7 ± 1.5", "unit": "g"}
    ]},
    {"smiles": "CSc1ccc(C(=O)/C=C/c2cc(C)c(OC(C)(C)C(=O)O)c(C)c2)cc1", "note": "[GFT 505, Elafibranor]", "values": [
      {"measurement": "HbA1c", "setting": "db/db mice [4]", "value": 6, "unit": "%"}
    ]},
    {"smiles": "CN(C)C(=N)N=C(N)N", "note": "[Metformin, metformin]", "values": [
      {"measurement": "Body mass", "setting": "db/db mice [5]", "value": "40.8 ± 2.1", "unit": "g"},
      {"measurement": "Fasting glycemia", "setting": "db/db mice [6]", "value": "474 ± 24", "unit": "mg/dL"},
      {"measurement": "HbA1c", "setting": "db/db mice [7]", "value": "7.59 ± 0.24", "unit": "%"},
      {"measurement": "Area under the curve measured during an test of insulin sensitivity (AUC)", "setting": "db/db mice [8]", "value": "32778 ± 3166", "unit": "mg·min/dL"},
      {"measurement": "Serum triglycerides", "setting": "db/db mice [9]", "value": "256.23 ± 28.19", "unit": "mg/dL"},
      {"measurement": "HDL cholesterol", "setting": "db/db mice [9]; serum", "value": "99.21 ± 6.03", "unit": "mg/dL"}
    ]},
    {"smiles": "CC[C@H]1[C@@H](O)[C@@H]2[C@H](CC[C@]3(C)[C@@H]([C@H](C)CCC(=O)O)CC[C@@H]23)[C@@]2(C)CC[C@@H](O)C[C@@H]12", "note": "[OCA, obeticholic acid]", "values": [
      {"measurement": "Reduction of circulating HDL cholesterol", "setting": "[10]", "value": -0.2, "unit": "g/L"}
    ]},
    {"smiles": "CC[C@H](C)C(=O)O[C@H]1C[C@H](O)C=C2C=C[C@H](C)[C@H](CC[C@@H](O)C[C@@H](O)CC(=O)O)[C@H]21", "note": "[Pravastatin]", "values": [
      {"measurement": "% of inhibition HMG-CoA reductase", "setting": "[11]", "value": 100, "unit": "%"},
      {"measurement": "inhibition at 60 µg/mL", "setting": "[11]", "value": 100, "unit": "%"}
    ]}
  ]
}
